From patent US20170081331A1, “Pyrazolopyrazines and their use in the treatment, amelioration or prevention of a viral disease” (F. Hoffmann-La Roche AG, priority 2015, published 2017) come the findings set out here.

Structures are written as SMILES. Like-named read-outs stand apart in the source and are kept apart here.

The target in assay [1] is whole RNP complex of IAV strain A/PR/8/34 (Influenza A virus, UniProt P03433). Briefly: Transcription assay (TA assay), Quantigene detection of de novo viral mRNA. The class given is biochemical, influenza A virus A/PR/8/34. The following applies: 80 pM RNPs, 2 nM capped RNA substrate, cell-free.
Assay [2] addresses T1, influenza A virus (IAV) PA-Nter fragment (amino acids 1-209) (Influenza A virus, UniProt P31343).
T1 construct: PA-Nter fragment (amino acids 1-209); made in house
Nature of the assay: FRET endonuclease activity assay. The class given is biochemical. The settings on record: PA-Nter 0.5 μM, 1.6 μM RNA substrate; from initial reaction velocities (v0).

The term IC50 denotes the concentration needed to halve the response being measured.

As for `CC(C)N1CC(c2ccccc2)n2c(c(O)c(=O)n2Cc2ccccc2)C1=O` (stereo not shown), in assay [1] (read-out: TA assay IC50), the half-maximal inhibitory concentration (IC50) stood at 5.85 µM. For the compound `COC(=O)c1nn2c(c1O)C(=O)N(C(C)C)CC2`, the IC50 in assay [1] (read-out: TA IC50 (unit inferred)) came out at 79.6 µM. As for `CC(C)N1CC(C)n2c(c(O)c(=O)n2Cc2ccccc2)C1=O` (stereo not shown), the half-inhibitory concentration (IC50) in assay [2] turned out to be 2.63 µM. Consider `CN1CC(Cc2ccccc2)n2nc(C(=O)O)c(O)c2C1=O` (stereo not shown), for which, in assay [1] (read-out: TA assay IC50), the IC50 was 25.5 µM. The compound `CC(C)N1CCn2[nH]c(=O)c(O)c2C1=O` yielded a half-inhibitory concentration (IC50) in assay [2] of 1.31 µM. Consider `O=C(O)c1nn2c(c1O)C(=O)NCC2Cc1ccccc1` (stereo not shown), for which the 50% inhibitory concentration (IC50) in assay [1] (read-out: TA assay IC50) was 35.1 µM.

With `CC(C)N1CCn2c(c(O)c(=O)n2CCc2ccccc2)C1=O`, in assay [2], 7.54 µM corresponded to half-maximal inhibition (IC50).

Take `CC(C)N1CCn2c(c(O)c(=O)n2Cc2ccccc2)C1=O`: in assay [2], it took 12.4 µM to reach half-maximal inhibition (IC50). Turning to `CC(C)N1CC(Cc2ccccc2)n2nc(C(=O)O)c(O)c2C1=O` (stereo not shown), in assay [1] (read-out: TA assay IC50), the IC50 was 13.2 µM. With `O=C(O)c1nn2c(c1OCc1ccccc1)C(=O)NCC2`, the IC50 in assay [1] (read-out: TA assay IC50) was 0.532 µM.
